Source: patent US20250295639A1, “METHODS FOR TREATING HEART DISEASES” (Cytokinetics, Incorporated, priority 2024, published 2025)
Several values for one entry are separate records, joined by “and”; a condition that tells them apart may be missing. Equal values may be shown once.

Tested on: patients with symptomatic oHCM
Assay: SEQUOIA-HCM: cardiopulmonary exercise testing (CPET), incl. by baseline beta blocker use
Assay type: in vivo, human
Source text: The primary objective of this trial was to evaluate the effect of aficamten on exercise capacity in patients with symptomatic oHCM. The indicated endpoint was a change in peak oxygen uptake (pVO2) by cardiopulmonary exercise testing (CPET) from baseline to Week 24. A further secondary objective was to evaluate the effect of aficamten on exercise capacity, as determined by change in total workload during CPET from baseline to Week 24. A further exploratory objective of this trial was to evaluate the effect of aficamten on other CPET parameters, as determined by changes from baseline to Week 24 in: (1) ventilator efficiency (VE/VCO2 slope); (2) circulatory power (VO2× systolic BP); and (3) ventilator anaerobic threshold (VAT). Cardiopulmonary Exercise Testing (CPET). All patients underwent CPET with gas-exchange analysis and the methodology will be standardized across all participating sites, as described in the CPET manual. Testing included continuous ECG monitoring by trained personnel and was performed in an area that was equipped for cardiopulmonary resuscitation. Treadmill was the preferred modality for exercise testing. […] Exercise protocols for both modalities were provided in the CPET manual. Patients had to use the same testing modality for all exercise tests during the trial. Whenever possible, CPET was administered by the same trial personnel using the same equipment and performed after the other trial procedures on that visit day (including echocardiogram, KCCQ, EQ-5D-5L, CGI, PGI-C, NYHA class, SAQ-7, vital signs, ECG, blood sampling, IP administration). Patients naïve to exercise protocols were familiarized with the technique during screening. All CPET testing was symptom-limited and patients were strongly encouraged to achieve maximal exertion and an RER ≥1.05. The reason(s) for termination of sub-maximal exercise tests were documented. A test was identified as being maximal effort if the RER is ≥1.05. The Week 24 CPET was performed at approximately the same time of day (eg, morning, mid-day, afternoon) as the baseline CPET at screening, at a consistent time after the last dose of beta blocker and IP. Whenever possible, patients performed exercise testing between three and ten hours after taking beta blocking agents. CPET End Points. We looked at whether aficamten would improve a novel measure of integrated exercise performance that combines complementary measures previously independently related to oHCM prognosis, and that incorporates both submaximal and maximal exercise capacity. A primary outcome was the change from baseline to week 24 in integrated exercise performance, defined as the 2-component Z-score of pVO2 and ventilatory efficiency (VE/VCO2 slope). Response rates for achieving clinically meaningful thresholds for change in pVO2 and correlations with clinical measures of treatment effect (health status, echocardiographic, cardiac biomarkers) were also assessed. The primary analysis was the change from baseline to Week 24 in integrated exercise performance, normalized to a composite of Z-scores for pVO2 and VE/VCO2 slope to capture physiologic responses to maximal and submaximal exercise. The Z-score was derived by reversing the directionality of VE/VCO2 slope such that increases in both Z-score components indicate benefit and equal weights were used for each Z-score component. Secondary end points included assessments for changes from baseline to week 24 in CPET-derived measures during 2 phases of exercise performance: (1) peak exercise (pVO2, peak workload, peak metabolic equivalents [METS], peak circulatory power [VO2× systolic blood pressure], exercise duration, peak respiratory exchange ratio [RER], heart rate reserve, peak heart rate, O2 pulse at peak exercise, proportionate pulse pressure); and (2) during submaximal exercise (pre-anaerobic threshold VE/VCO2 slope, VE/VCO2 slope throughout exercise, ventilatory power, ventilatory anaerobic threshold, and aerobic efficiency). Beta Blocker Co-administration. […]

[1] = Aficamten arm, change baseline to week 24
[2] = Baseline Beta Blocker Use: No, Week 24
[3] = Baseline Beta Blocker Use: Yes, Week 24
[4] = aficamten versus placebo, 24 weeks
[5] = patients treated with aficamten

CCc1nc(-c2ccc3c(c2)CC[C@H]3NC(=O)c2cnn(C)c2)no1 [aficamten, (R)—N-(5-(5-ethyl-1,2,4-oxadiazol-3-yl)-2,3-dihydro-1H-inden-1-yl)-1-methyl-1H-pyrazole-4-carboxamide]
Aerobic efficiency (Aficamten arm, Week 24): 8.6 mL/min/watt
Exercise duration (Aficamten arm, Week 24): 12.4 min
Heart rate reserve (Aficamten arm, Week 24): 66
Integrated 2 component Z-score metric (Aficamten arm, Week 24): 0.16
Peak circulatory power (Aficamten arm, Week 24): 3550 mmHg*mL/min/kg
Peak heart rate (Aficamten arm, Week 24): 135 beats/min
Peak respiratory exchange ratio (Aficamten arm, Week 24): 1.20
Peak workload (Aficamten arm, Week 24): 134 watt
Proportionate pulse pressure (peak) (Aficamten arm, Week 24): 0.51
Proportionate pulse pressure (rest) (Aficamten arm, Week 24): 0.37
Ventilatory anaerobic threshold (Aficamten arm, Week 24): 958 mL
Ventilatory efficiency pre-anaerobic threshold (VE/VCO2 slope) (Aficamten arm, Week 24): 27.4
Ventilatory efficiency throughout exercise (VE/VCO2 slope) (Aficamten arm, Week 24): 30.9
Ventilatory power (Aficamten arm, Week 24): 5.9 mmHg
pVO2 (Aficamten arm, Week 24): 20.2 mL/kg/min
Aerobic efficiency, Abs. diff. [1]: 0.3 mL/min/watt
Exercise duration, Abs. diff. [1]: 1.2 min
Heart rate reserve, Abs. diff. [1]: 7
Integrated 2 component Z-score metric, Abs. diff. [1]: +0.17±0.51
O2 pulse at peak exercise, Abs. diff. [1]: 0.00 mL/beat
Peak circulatory power, Abs. diff. [1]: 537 mmHg*mL/min/kg
Peak heart rate, Abs. diff. [1]: 8 beats/min
Peak respiratory exchange ratio, Abs. diff. [1]: 0.01
Peak workload, Abs. diff. [1]: 14 watt
Proportionate pulse pressure (peak), Abs. diff. [1]: 0.02
Proportionate pulse pressure (rest), Abs. diff. [1]: −0.02
Ventilatory anaerobic threshold, Abs. diff. [1]: 60 mL
Ventilatory efficiency pre-anaerobic threshold (VE/VCO2 slope), Abs. diff. [1]: −1.9
Ventilatory efficiency throughout exercise (VE/VCO2 slope), Abs. diff. [1]: −2.2
Ventilatory power, Abs. diff. [1]: 0.8 mmHg
pVO2, Abs. diff. [1]: 1.8 mL/kg/min
Integrated 2 component Z-score metric, Abs. diff. (Aficamten arm, change baseline to week 24, listed as Aficamten): 0.17
patients with Any Deterioration (small/moderate/large) in pVO2 (Aficamten, 24 weeks): (26.1%)
patients with Any Deterioration (small/moderate/large) in pVO2, number (Aficamten, 24 weeks): 37
patients with Any Improvement (small/moderate/large) in pVO2 (Aficamten, 24 weeks): (73.9%)
patients with Any Improvement (small/moderate/large) in pVO2, number (Aficamten, 24 weeks): 105
patients with Large Improvement in pVO2 (≥3.0 mL/kg/min) (Aficamten, 24 weeks): 32%
patients with Large Improvement in pVO2 (≥3.0 mL/kg/min), number (Aficamten, 24 weeks): 46
patients with Moderate/Large Improvement in pVO2 (≥1.5 mL/kg/min) (Aficamten, 24 weeks): (52.8%)
patients with Moderate/Large Improvement in pVO2 (≥1.5 mL/kg/min), number (Aficamten, 24 weeks): 75
patients with Large Improvement in pVO2 (≥3.0 mL/kg/min) (Aficamten, 24 weeks, listed as Aficamten): (32.4%)
Change in Exercise Duration on CPET from Baseline to Week 24, LS Mean (SE) (Baseline Beta Blocker Use: No): 1.2 (0.26) minutes
Change in Exercise Duration on CPET from Baseline to Week 24, LS Mean Diff vs. Placebo (SE) (Baseline Beta Blocker Use: No): 1.1 (0.38) minutes
Change in Exercise Duration on CPET from Baseline to Week 24, Mean (SD) (Baseline Beta Blocker Use: No): 1.3 (2.34) minutes
Change in Exercise Duration on CPET from Baseline to Week 24, Median (Baseline Beta Blocker Use: No): 1.1 min
Change in peak METs from Baseline to Week 24, LS Mean (SE) (Baseline Beta Blocker Use: No): 0.62 (0.113) METs
Change in peak METs from Baseline to Week 24, LS Mean Diff vs. Placebo (SE) (Baseline Beta Blocker Use: No): 0.55 (0.162) METs
Change in peak METs from Baseline to Week 24, Mean (SD) (Baseline Beta Blocker Use: No): 0.65 (1.029) METs
Change in peak METs from Baseline to Week 24, Median (Baseline Beta Blocker Use: No): 0.47 METs
Exercise Duration on CPET, Baseline, Mean (SD) (Baseline Beta Blocker Use: No): 11.0 (3.52) minutes
Exercise Duration on CPET, Baseline, Median (Baseline Beta Blocker Use: No): 10.3 min
peak METs (pVO2/3.5 (mL/kg/min)) on CPET, Baseline, Mean (SD) (Baseline Beta Blocker Use: No): 5.27 (1.314) METs
peak METs (pVO2/3.5 (mL/kg/min)) on CPET, Baseline, Median (Baseline Beta Blocker Use: No): 5.11 METs
Exercise Duration on CPET, Week 24, Mean (SD) [2]: 12.2 (4.39) minutes
Exercise Duration on CPET, Week 24, Median [2]: 11.3 min
peak METs (pVO2/3.5 (mL/kg/min)) on CPET, Week 24, Mean (SD) [2]: 5.89 (1.481) METs
peak METs (pVO2/3.5 (mL/kg/min)) on CPET, Week 24, Median [2]: 5.66 METs
Change in Exercise Duration on CPET from Baseline to Week 24, LS Mean (SE) (Baseline Beta Blocker Use: Yes): 1.0 (0.22) minutes
Change in Exercise Duration on CPET from Baseline to Week 24, LS Mean Diff vs. Placebo (SE) (Baseline Beta Blocker Use: Yes): 0.9 (0.30) minutes
Change in Exercise Duration on CPET from Baseline to Week 24, Mean (SD) (Baseline Beta Blocker Use: Yes): 1.1 (1.98) minutes
Change in Exercise Duration on CPET from Baseline to Week 24, Median (Baseline Beta Blocker Use: Yes): 0.5 min
Change in peak METs from Baseline to Week 24, LS Mean (SE) (Baseline Beta Blocker Use: Yes): 0.40 (0.093) METs
Change in peak METs from Baseline to Week 24, LS Mean Diff vs. Placebo (SE) (Baseline Beta Blocker Use: Yes): 0.46 (0.130) METs
Change in peak METs from Baseline to Week 24, Mean (SD) (Baseline Beta Blocker Use: Yes): 0.41 (0.781) METs
Change in peak METs from Baseline to Week 24, Median (Baseline Beta Blocker Use: Yes): 0.31 METs
Exercise Duration on CPET, Baseline, Mean (SD) (Baseline Beta Blocker Use: Yes): 11.4 (2.55) minutes
Exercise Duration on CPET, Baseline, Median (Baseline Beta Blocker Use: Yes): 11.1 min
peak METs (pVO2/3.5 (mL/kg/min)) on CPET, Baseline, Mean (SD) (Baseline Beta Blocker Use: Yes): 5.24 (1.251) METs
peak METs (pVO2/3.5 (mL/kg/min)) on CPET, Baseline, Median (Baseline Beta Blocker Use: Yes): 5.28 METs
Exercise Duration on CPET, Week 24, Mean (SD) [3]: 12.5 (3.61) minutes
Exercise Duration on CPET, Week 24, Median [3]: 12.4 min
peak METs (pVO2/3.5 (mL/kg/min)) on CPET, Week 24, Mean (SD) [3]: 5.70 (1.497) METs
peak METs (pVO2/3.5 (mL/kg/min)) on CPET, Week 24, Median [3]: 5.64 METs
patients with large pVO2 deteriorations/reductions (≥3.0 mL/kg/min) (aficamten group, 24 weeks): 2%
Any Deterioration in pVO2, NNT [4]: −3.8
Any Deterioration in pVO2, OR [4]: 0.32
Any Deterioration in pVO2, Risk Difference [4]: −26%
Any Improvement in pVO2, NNT [4]: 3.8 and < 4
Any Improvement in pVO2, OR [4]: 3.09
Any Improvement in pVO2, Risk Difference [4]: +26%
Large Improvement in pVO2, NNT [4]: 6.3
Large Improvement in pVO2, OR [4]: 2.44
Large Improvement in pVO2, Risk Difference [4]: +15.%
Moderate/Large Improvement in pVO2, NNT [4]: 4.7
Moderate/Large Improvement in pVO2, OR [4]: 2.44
Moderate/Large Improvement in pVO2, Risk Difference [4]: +21%
Any Improvement in pVO2, NNT (aficamten versus placebo, 24 weeks, listed as Aficamten): 3.8
Aerobic efficiency, Adjusted difference (LS mean treatment difference) (aficamten vs placebo, week 24): 0.2 mL/min/watt
Exercise duration, Adjusted difference (LS mean treatment difference) (aficamten vs placebo, week 24): 1.0 min
Heart rate reserve, Adjusted difference (LS mean treatment difference) (aficamten vs placebo, week 24): 6
Integrated 2 component Z-score metric, Adjusted difference (LS mean treatment difference) (aficamten vs placebo, week 24): +0.35
O2 pulse at peak exercise, Adjusted difference (LS mean treatment difference) (aficamten vs placebo, week 24): 0.003 mL/beat
Peak circulatory power, Adjusted difference (LS mean treatment difference) (aficamten vs placebo, week 24): 586 mmHg*mL/min/kg
Peak heart rate, Adjusted difference (LS mean treatment difference) (aficamten vs placebo, week 24): 9 beats/min
Peak respiratory exchange ratio, Adjusted difference (LS mean treatment difference) (aficamten vs placebo, week 24): 0.00
Peak workload, Adjusted difference (LS mean treatment difference) (aficamten vs placebo, week 24): 12 watt
Proportionate pulse pressure (peak), Adjusted difference (LS mean treatment difference) (aficamten vs placebo, week 24): 0.01
Proportionate pulse pressure (rest), Adjusted difference (LS mean treatment difference) (aficamten vs placebo, week 24): −0.01
Ventilatory anaerobic threshold, Adjusted difference (LS mean treatment difference) (aficamten vs placebo, week 24): 59 mL
Ventilatory efficiency pre-anaerobic threshold (VE/VCO2 slope), Adjusted difference (LS mean treatment difference) (aficamten vs placebo, week 24): −1.5
Ventilatory efficiency throughout exercise (VE/VCO2 slope), Adjusted difference (LS mean treatment difference) (aficamten vs placebo, week 24): −2.3
Ventilatory power, Adjusted difference (LS mean treatment difference) (aficamten vs placebo, week 24): 0.9 mmHg
pVO2, Adjusted difference (LS mean treatment difference) (aficamten vs placebo, week 24): 1.7 mL/kg/min
Integrated 2 component Z-score metric, Adjusted difference (LS mean treatment difference) (aficamten vs placebo, week 24, listed as Aficamten): 0.35
improvement in Exercise Duration on CPET: influence of beta blockers (baseline to Week 24): not significantly diminished by the use of beta blockers
improvement in peak metabolic equivalents (peak METs) on CPET: influence of beta blockers (baseline to Week 24): not significantly diminished by the use of beta blockers
times less likely to experience worsening of pVO2 than those on placebo (categorical threshold analyses): more than 5 times
patients who experienced an improvement in pVO2 [5]: 72.2%
patients with large improvement (≥3.0 mL/kg/min) in pVO2 [5]: 27.8%
patients with moderate improvement (≥1.5 to <3.0 mL/kg/min) in pVO2 [5]: 21.8%
patients with small improvement (0 to <1.5) in pVO2 [5]: 22.6%
LSM difference in pVO2 (95% CI) (patients who were also on beta blockers): 1.6 (0.7 to 2.5) mL/kg/min
LSM difference in pVO2 (95% CI) (patients who were not on beta blockers): 1.9 (0.8 to 3.1) mL/kg/min
